The text below walks through data of the RepoRT retention time repository (doi:10.1021/es4044374).

This data set can be described thus: RP, Waters XBridge C18, 50 × 2.1 mm, 3.5 µm, 30 °C, 0.2 mL/min, estimated dead time 0.55 min; A: water + 0.1% formic acid, pH 3; B: methanol + 0.1% formic acid, pH 3; gradient (min/%B) 0/10 4/50 17/95 25/95 25.1/10 30/10. The conditions noted are these: stereoisomer not certain.
In the case of `CCC(C)(C)C(=O)OC1CC(C)C=C2C=CC(C)C(CCC3CC(O)CC(=O)O3)C21` (stereo not given) [Simvastatin], the LC retention time is 16 min. For `CC(=NC#N)N(C)Cc1ccc(Cl)nc1` [Acetamiprid] the value was 5.3 min; for `CC(C)N(C(=O)C(=O)O)c1ccccc1` [Propachlor OXA], 5.6 min. In the case of `O=C(O)C(c1ccccc1)C1CCCCN1` (stereo not given) [Ritalinic acid], the LC retention time was 4.7 min. For `Cc1ccc2n[nH]nc2c1` [5-Methyl-1H-benzotriazole] the value was 5.8 min; for `CC(=O)Nc1ccc(S(=O)(=O)Nc2nc(C)cc(C)n2)cc1` [N4-Acetylsulfamethazine], 4.5 min. For `COc1cccc(C2(O)CCCCC2CN(C)C)c1` (stereo not given) [Tramadol] the value was 4.9 min. Turning to `O=C(O)Cc1ccccc1Nc1c(Cl)cccc1Cl` [Diclofenac], the LC retention time was 12.8 min. The value for `CCCC1CC(C(=O)NC(C(C)Cl)C2OC(SC)C(O)C(O)C2O)N(C)C1` (stereo not given) [Clindamycin] was 6.7 min.

For the compound `O=C(NC(=O)c1c(F)cccc1F)Nc1cc(Cl)c(F)c(Cl)c1F` [Teflubenzuron], the LC retention time is 16.1 min. For `O=C1CC(C(=O)O)CC(=O)C1=C(O)C1CC1` (stereo not given) [Trinexapac] the value was 6.9 min; for `COCc1cnc(C2=NC(C)(C(C)C)C(=O)N2)c(C(=O)O)c1` (stereo not given) [Imazamox], 5.7 min; for `CC(N)Cc1ccccc1` (stereo not given) [Amphetamine], 3.5 min. The value for `COc1ccc(C(=CC(=O)N2CCOCC2)c2ccc(Cl)cc2)cc1OC` [Dimethomorph] was 10.8 min; that for `COP(=S)(OC)Oc1nc(Cl)c(Cl)cc1Cl` [Chlorpyrifos-methyl] was 14 min. For `O=C1Nc2ccc(Cl)cc2C(c2ccccc2)=NC1O` (stereo not given) [Oxazepam] the value was 9 min; for `O=C(O)C(F)(F)C(F)(F)C(F)(F)C(F)(F)F` [Perfluoropentanoic acid], 7.3 min. As to `CCc1ccc(C(=O)NN(C(=O)c2cc(C)cc(C)c2)C(C)(C)C)cc1` [Tebufenozide], the LC retention time was 12.4 min. The value for `CNC(=C[N+](=O)[O-])NCCS(=O)Cc1ccc(CN(C)C)o1` (stereo not given) [Ranitidine-S-oxide] was 0.8 min.

For the compound `Nc1ccc(S(=O)(=O)Nc2nccs2)cc1` [Sulfathiazole], the LC retention time was 2.8 min. For `N#Cc1nn(-c2c(Cl)cc(C(F)(F)F)cc2Cl)c(N)c1S(=O)C(F)(F)F` (stereo not given) [Fipronil] the value was 12.6 min; for `CCNc1nc(Cl)nc(NC(C)C)n1` [Atrazine], 8.3 min; for `CC(=O)N(C)N(C(=O)C(=O)N(C)C)c1ccccc1` [Dioxoaminopyrine], 5.2 min. For `CC(C(=O)O)c1cccc(C(=O)c2ccccc2)c1` (stereo not given) [Ketoprofen] the value was 9.6 min; for `CCC(CC)OC1C=C(C(=O)O)CC(N)C1NC(C)=O` (stereo not given) [Oseltamivir carboxylate], 5.1 min; for `CCCC1COC(Cn2cncn2)(c2ccc(Cl)cc2Cl)O1` (stereo not given) [Propiconazole], 13.1 min. The value for `Cc1ccc(NS(=O)(=O)N(C)C)cc1` [N,N-Dimethyl-N'-p-tolylsulphamide] was 7.5 min; that for `CC(=O)NCCCS(=O)(=O)O` [Acamprosate] was 1 min. As for `CCCCc1ncc(C=C(Cc2cccs2)C(=O)O)n1Cc1ccc(C(=O)O)cc1` [Eprosartan], the LC retention time was 6.3 min. The value for `CON=C(C(=O)OC)c1ccccc1COc1ccccc1C` [Kresoxim-methyl] was 12.5 min; that for `COC(=O)C(Cc1ccccc1)NC(=O)C(N)CC(=O)O` (stereo not given) [Aspartame] was 4.8 min.

For the compound `CCN(CC(=O)O)S(=O)(=O)C(F)(F)C(F)(F)C(F)(F)C(F)(F)C(F)(F)C(F)(F)C(F)(F)C(F)(F)F` [N-Ethylperfluorooctane sulfonamidoacetic acid], the LC retention time is 16.9 min.

As for `CC(C)Nc1nc(N)[nH]c(=O)n1` [Atrazine-desethyl-2-hydroxy], the LC retention time is 1.4 min. The value for `Cc1ccc(N=CN(C)C=Nc2ccc(C)cc2C)c(C)c1` [Amitraz] was 15.4 min; that for `CNC(=N[N+](=O)[O-])NCc1cnc(Cl)s1` [Clothianidin] was 4.9 min; that for `CC1(C)CC1C(=O)NC(=CCCCCSCC(N)C(=O)O)C(=O)O` (stereo not given) [Cilastatin] was 5.2 min. The value for `CCOC(=O)Nc1cccc(OC(=O)Nc2ccccc2)c1` [Desmedipham] was 9.2 min; that for `CC(=O)OC1C(C)OC(n2cc(F)c(N)nc2=O)C1OC(C)=O` (stereo not given) [2',3'-di-O-acetyl-5'-deoxy-5-fluorocytidine] was 5.2 min.

Consider `CCCCC1=NC2(CCCC2)C(=O)N1Cc1ccc(-c2ccccc2-c2nn[nH]n2)cc1` [Irbesartan], for which the LC retention time is 9.2 min. The value for `Cc1cc(C2CC2)nc(Nc2ccccc2)n1` [Cyprodinil] was 9.4 min. The value for `CC(C)NCC(O)COc1cccc2ccccc12` (stereo not given) [Propranolol] was 6.6 min; that for `CC1(C)CON(Cc2ccccc2Cl)C1=O` [Clomazone] was 9.4 min. For `CCc1cccc(CC)c1N(COC)C(=O)C(=O)O` [Alachlor OXA] the value was 7.4 min; for `C=C1CC2C(CCC3(C)C(=O)CCC23)C2(C)C=CC(=O)C=C12` (stereo not given) [Exemestane], 10.1 min. Regarding `C=C1C(=O)NC(C)C(=O)NC(CC(C)C)C(=O)NC(C(=O)O)C(C)C(=O)NC(CCCN=C(N)N)C(=O)NC(C=CC(C)=CC(C)C(Cc2ccccc2)OC)C(C)C(=O)NC(C(=O)O)CCC(=O)N1C` (stereo not given) [Microcystin-LR], the LC retention time is 10.2 min.

Consider `FC(F)(F)c1cccc(N2CCNCC2)c1` [1-(3-(Trifluoromethyl)phenyl)piperazine], for which the LC retention time was 5.9 min.

On to `Cc1ncc([N+](=O)[O-])n1CCO` [Metronidazole], for which the LC retention time was 2.1 min. The value for `NC(=O)N1c2ccccc2C2OC2c2ccccc21` (stereo not given) [Carbamazepine-10,11-epoxide] was 6.3 min. For `COc1ccc2cc(C(C)C(=O)O)ccc2c1` (stereo not given) [Naproxen] the value was 10.2 min. For `CC(C)Cc1ccc(C(C)C(=O)O)cc1` (stereo not given) [Ibuprofen] the value was 13.6 min; for `CN(C)CCC=C1c2ccccc2CCc2ccccc21` [Amitriptyline], 8.6 min; for `CCC1OC(=O)C(C)C(OC2CC(C)(OC)C(O)C(C)O2)C(C)C(OC2OC(C)CC(N(C)C)C2O)C(C)(O)CC(C)C(=NOCOCCOC)C(C)C(O)C1(C)O` (stereo not given) [Roxithromycin], 10.1 min.

For the compound `O=[N+]([O-])c1cc(C(F)(F)F)c(Cl)c([N+](=O)[O-])c1Nc1ncc(C(F)(F)F)cc1Cl` [Fluazinam], the LC retention time was 15.9 min. As to `CC(C)N(C(=O)C(=O)O)c1ccc(F)cc1` [Flufenacet OXA], the LC retention time is 6.2 min. The value for `CC(=O)Nc1ccc(S(=O)(=O)Nc2ncccn2)cc1` [N4-Acetylsulfadiazine] was 3.6 min.
